Data as given in patent publication US20200276312A1, “Elimination of chronic pain by chronic activation of adenosine receptor type A1 in peripheral sensory neurons” (University of Rochester, priority 2019, published 2020).
“Also recorded” adds a separate entry of the source.

Assays:
[1] = system: mice with MIA-induced inflammatory chronic pain; test: von Frey mechanical sensitivity in MIA-induced inflammatory chronic pain; type: in vivo, mouse; details: for acupuncture-induced acute analgesia: agent applied at ST36 prior to each acupuncture; for acupuncture-induced RHyp (resolution of hypersensitivity): agent given with repetitive acupuncture (DPCPX, topical lidocaine at ST36; caffeine oral 0.1 mg/ml)
Description: To assess if repetitive application of acupuncture produces an extension of transient analgesia or RHyp, inflammatory chronic pain was induced by administering monosodium iodoacetate (MIA) in the hind limb knee joints of mice (FIG. 1A and FIG. 5A), in which spreading of hypersensitivity (hyperalgesia and allodynia) in the limb develops in 3 weeks and never wears off thereafter (Combe et al., 2004, Neurosci Lett 370:236-240; Ogbonna et al., 2015, Age (Dordr) 37:9792; Rahman & Dickenson, 2015, Neuroscience 295:103-116). […] Manual acupuncture, given twice a week at ST36, induced acute analgesia in weeks 2 and 3 as well. […] This delayed-onset reduction of hypersensitivity was not a result of loss of the knee arthritis pathology, as indicated by the synovial membrane hypertrophy (FIG. 5B). […] In order to identify the cell type whose A1R mediates acute analgesia and RHyp, transgenic mice with conditional deletion of A1R selectively in sensory neurons were generated (Akopian et al, 1996, Nature 379:257-262; Stirling et al., 2005, Pain 113:27-36). (FIG. 5C). […] Both acute analgesia and RHyp were absent with repetitive administration of vehicle (FIG. 5D). […] Combined, chronic activation of A1R in sensory neurons resolves sensitization state, which can be induced by repetitive acupuncture.
Mechanical sensitivity was measured using a slightly modified Semmes-Weinstein von Frey Aesthesiometer touch test. Before beginning the measurement session, animals were acclimated to the acrylic chamber (IITC Life Science, Woodland Hills, Calif.) for 60 minutes per day for two days. Baseline mechanosensitivity was measured at least twice on different days to validate the stable, low mechanosensitivity in all mice prior to pain induction administered on the day of the second measurement. The average of the two measurements was recorded as the baseline sensitivity value. Pain-induced hyper-mechanosensitivity was evaluated three weeks after the intra-articular administration of monosodium iodoacetate (MIA, Sigma-Aldrich, 60 mg/ml, 5 μl) to a knee joint. Of note, most other inflammatory pain models cannot stably sustain hypersensitivity over months. The evaluation was performed by gently applying a thin filament of 0.04 g force to the hind paw of the animals, and the rapid retraction or tapping of the foot was counted as a positive response. A total of six trials were given to a paw in one measurement session with an interval of at least 5 min between each trial. Positive responses in the all trials were recorded, and the data were represented as the percent of positive responses. Percent change in mechanosensitivity by treatments was obtained by subtracting values of percent responses before acupuncture from that after acupuncture for each animal. […] All behavioral measurements were done at the same time of the day during the 12-hour light cycle.
For acupuncture treatment, animals were placed in a restrainer with the hind leg, ipsilateral to the knee inflammation, secured and loosely stretched. An acupuncture needle (0.20 mm; DBC Spring, Lhasa OMS, Weymouth, Mass.) was gently inserted to ST36 Zusanli point (3-4 mm below and 1-2 mm lateral from the midline from the knee) at a depth of 1.5 mm,^40 then slowly rotated for 1 minute every 3-4 minutes for a 20-minute session while the mice were awake. For sham treatment, the acupuncture needle was inserted in the same way, but then untouched for 20 minutes. The animals were immediately transferred back to the chamber and acclimated for at least 15 minutes before the post-treatment mechanosensitivity measurements. In selected experiments, solution of 2-Chloro-N^6-cyclopentyladenosine (CCPA, Sigma-Aldrich, 100 μM, 5 μl) was administered to ST36 at a depth of 1.5 mm instead of acupuncture needle. 8-Cyclopentyl-1,3-dipropylxanthine (DPCPX, Sigma-Aldrich, 100 µM, 5 μl) was administered to ST36 at a depth of 1.5 mm prior to acupuncture needle insertion. […]

sciatic nerve tissue = test: CCPA permeability into sciatic nerve in vivo; parameters: species or system mouse
Method: For quantification of CCPA permeability, parafilm (7×20 mm) was placed underneath of the exposed sciatic nerve which was then covered with a custom-made enclosure (6.5 mm length plastic tube, 1.5 mm inner diameter with 120° opening) to control the length of nerve exposed to the drugs. The enclosure surrounding the nerve was gently filled with 10 μl of CCPA (5 mM) alone or a mixture of CCPA and an ENT1/2 inhibitor, 6-S-[(4-Nitrophenyl)methyl]-6-thioinosine (NBMPR, Thermo Fisher, 1 mM). After 90 minutes, the nerve was washed with PBS, extracted (6 mm length), and stored at −80° C. Tissues were homogenized in methanol using FastPrep-24 5G with CoolPrep adapter (MP Biomedicals) and incubated for 12-14 hours at −20° C. After centrifuging at 12,000 g for 15 minutes, the supernatants were dried down in CentriVap concentrator and then reconstituted in 50% DMSO. In the pilot studies, it was confirmed that highest recovery rate of CCPA was obtained with homogenization in methanol, compared to that in ethanol or HEPES buffer solution followed by ultrafilteration, and recovery rate was calculated as 95.19%. The concentrations of CCPA in samples were quantified by HPLC.

[2] = in vitro release of CCPA from Fmoc-F5-Phe cation hydrogel (HPLC); type: physicochemical; details: 37° C.
Method: To determine the amount of CCPA released from a 1 mL hydrogel of the Fmoc-F^5-Phe cation (33.7 mM Fmoc-F^5-Phe cation, 114 mM NaCl, 0.5 mM CCPA) as a function of time, 1.5 mL of isotonic water (114 mM NaCl) was slowly added to the top of the gel to avoid disrupting the gel. This bilayer mixture was sealed in a screw top vial and placed in a 37° C. oven. Aliquots (80 μL) were removed 20 min, 40 min, 60 min, 2 h, 3 h, 4 h, 6 h, 30 h, 54 h, and 78 h after the salt water was initially layered over the gel. After removing each aliquot, the salt solution was immediately replaced with an equal volume of salt solution (80 μL, 114 mM NaCl). Aliquots were assessed by injection onto analytical HPLC instrument in order to determine the amount of CCPA that had been released. A Shimadzu 2010A HPLC instrument equipped with a Phenomenex Gemini 5 micron C18 column (250×4.6 mm) with a guard column was used to determine concentration of the CCPA released into the 1.5 mL salt solution by correlation of integrated peak area to a previously constructed CCPA concentration curve. This concentration was converted to mol of CCPA and the diffusion coefficient was determined using Equation 1. […]

[3] = system: mice with CFA-induced acute inflammatory pain; test: ankle circumference (swelling) in CFA model; type: in vivo, mouse; details: day five, compared to CFA-induced group that received F5-Phe gel
[4] = system: mice with CFA-induced acute inflammatory pain; test: von Frey mechanical sensitivity in CFA-induced acute inflammatory pain; type: in vivo, mouse

SMILES: OC[C@H]1O[C@@H](n2cnc3c(NC4CCCC4)nc(Cl)nc32)[C@H](O)[C@@H]1O [CCPA, 2-Chloro-N^6-cyclopentyladenosine]
- response of hypersensitivity (acute analgesia, RHyp) ([1]; A1R conditional knockout (A1RcKO) mice, repetitive administration): unresponsive
- re-emergence of hypersensitivity ([1]; WT animals, post-treatment observation period): never re-emerged
- RHyp ([1]; repetitive CCPA solution (100 μM, 5 μl) at ST36 instead of acupuncture): induced RHyp
- CCPA entry into sciatic nerve (sciatic nerve tissue; CCPA 5 mM applied outside the nerve in vivo, 90 minutes): found inside the sciatic nerve tissue
- diffusion coefficient of CCPA release ([2]; 1 mL gel, 33.7 mM gelator, 500 μM CCPA, 114 mM NaCl, first 200 minutes): 3.15×10^−9 m^2 min^−1
- duration of continuous release from F5-Phe hydrogel ([2]; CCPA 500 μM): 15 days

SMILES: CCCn1c(=O)c2[nH]c(C3CCCC3)nc2n(CCC)c1=O [DPCPX, 8-Cyclopentyl-1,3-dipropylxanthine]
- acupuncture-induced acute analgesia [1]: inhibited the manifestation
- acupuncture-induced RHyp (resolution of hypersensitivity) [1]: inhibited the manifestation

SMILES: O=C(O)Cc1ccccc1Nc1c(Cl)cccc1Cl [Dcf, diclofenac]
- ankle circumference [3]: slightly lower circumferences
- mechanical sensitivity ([4]; from 24 h after injection over the final 13 days, 0.1 mg/mL, 10 μL): ~80%
- relative percentage of hind paw sensitivity ([4]; within hours of injection, versus gel lacking diclofenac): decreased significantly

SMILES: O=[N+]([O-])c1ccc(CSc2ncnc3c2ncn3[C@@H]2O[C@H](CO)[C@@H](O)[C@H]2O)cc1 [NBMPR, 6-S-[(4-Nitrophenyl)methyl]-6-thioinosine]
- effect on CCPA entry into sciatic nerve (sciatic nerve tissue; NBMPR 1 mM mixed with CCPA 5 mM): reduced the CCPA entry

SMILES: Cn1c(=O)c2c(ncn2C)n(C)c1=O [caffeine]
- acupuncture-induced RHyp (resolution of hypersensitivity) [1]: abolished

SMILES: CCCC(=O)Nc1ncnc2c1ncn2[C@@H]1O[C@@H]2COP(=O)(O)O[C@H]2[C@H]1OC(=O)CCC [dbcAMP, N^6,O^2-dibutyryladenosine 3,5-cyclic monophosphate]
- delay of onset of RHyp ([1]; co-delivered with CCPA by F5-Phe, submuscular at ST36): 3 weeks

SMILES: CCN(CC)CC(=O)Nc1c(C)cccc1C [lidocaine]
- acupuncture-induced acute analgesia [1]: loss of acupuncture-induced acute analgesia
- acupuncture-induced RHyp (resolution of hypersensitivity) [1]: RHyp was induced
- hind paw sensitivity ([1]; topical 5% lidocaine at ST36 without acupuncture): no changes in hind paw hypersensitivity; also recorded: did not modulate hind paw sensitivity

SMILES: COc1cccc(C2(O)CCCCC2CN(C)C)c1 (stereo not drawn) [tramadol]
- acute analgesia and RHyp ([1]; repetitive systemic administration): gradual loss of acute analgesia instead of RHyp
